What was measured:
[1] = Ratio of unbound AUC in brain to plasma in C57BL/6j mouse at 10 mg/kg, sc after 2 hrs; assay type: ADME, organism-based; conditions: read-out: Ratio AUC
[2] = AUC (0 to tlast) in Wistar Hann rat CSF at 5 mg/kg, sc; assay type: ADME, organism-based, Cerebrospinal fluid
[3] = Ratio of unbound AUC in brain to plasma in Wistar Hann rat; assay type: ADME, organism-based; conditions: read-out: Ratio AUC
[4] = Oral bioavailability in Wistar Hann rat; assay type: ADME, organism-based; conditions: in vivo
[5] = Ratio drug level in brain to plasma in C57BL/6j mouse at 10 mg/kg, sc after 1 hr; assay type: ADME, organism-based; conditions: read-out: BPR
[6] = AUC (0 to 24 hrs) in Wistar Hann rat at 0.5 mg/kg, iv; assay type: ADME, organism-based; parameters: dose 0.5 mg/kg, time < 24 hr, route intravenous; conditions: in vivo
[7] = Ratio of unbound AUC in brain to plasma in Wistar Hann rat at 5 mg/kg, sc after 6 hrs; assay type: ADME, organism-based; conditions: brain and plasma, read-out: Ratio AUC
[8] = Tmax in Wistar Hann rat plasma at 5 mg/kg, sc; assay type: ADME, organism-based
[9] = Drug concentration in Wistar Hann rat plasma at 5 mg/kg, sc after 6 hrs; assay type: ADME, organism-based
Plasma [10] = test: Fraction unbound in C57BL/6j mouse plasma at 10 mg/kg, sc after 4 hrs; assay type: ADME, organism-based; conditions: in vivo
[11] = Intial plasma concentration in Wistar Hann rat at 0.5 mg/kg, iv; assay type: ADME, organism-based
[12] = Drug concentration in Wistar Hann rat brain at 5 mg/kg, sc after 4 hrs; assay type: ADME, organism-based; conditions: read-out: Drug uptake
Plasma [13] = test: Fraction unbound in Wistar Hann rat plasma; assay type: ADME, cell-free
Plasma [14] = test: Fraction unbound in C57BL/6j mouse plasma; assay type: ADME, cell-free
[15] = Tmax in Wistar Hann rat brain at 5 mg/kg, sc; assay type: ADME, organism-based
[16] = Ratio drug level in brain to plasma in C57BL/6j mouse at 10 mg/kg, sc after 4 hrs; assay type: ADME, organism-based; conditions: read-out: BPR
[17] = Ratio of unbound AUC in CSF to plasma in Wistar Hann rat at 5 mg/kg, sc after 1 hr; assay type: ADME, organism-based; conditions: CSF and plasma, read-out: Ratio AUC
[18] = Drug concentration in Wistar Hann rat CSF at 5 mg/kg, sc after 6 hrs; assay type: ADME, organism-based, Cerebrospinal fluid; conditions: read-out: Drug uptake
Plasma [19] = test: Fraction unbound in Wistar Hann rat plasma at 5 mg/kg, sc after 1 hr; assay type: ADME, organism-based; conditions: in vivo
[20] = Ratio of drug level in brain to plasma in Wistar Hann rat at 5 mg/kg, sc after 6 hrs; assay type: ADME, organism-based
[21] = Tmax in Wistar Hann rat at 2 mg/kg, po; assay type: ADME, organism-based; conditions: in vivo
[22] = Ratio of drug level in brain to plasma in Wistar Hann rat at 5 mg/kg, sc after 2 hrs; assay type: ADME, organism-based
Plasma [23] = test: Fraction unbound in C57BL/6j mouse plasma at 10 mg/kg, sc after 0.5 hrs; assay type: ADME, organism-based; conditions: in vivo
[24] = Oral bioavailability in Wistar Hann rat at 2 mg/kg; assay type: ADME, organism-based; conditions: in vivo
[25] = AUC (0 to tlast) in Wistar Hann rat brain at 5 mg/kg, sc; assay type: ADME, organism-based
[26] = Drug concentration in Wistar Hann rat brain at 5 mg/kg, sc after 6 hrs; assay type: ADME, organism-based; conditions: read-out: Drug uptake
Plasma [27] = test: Fraction unbound in C57BL/6j mouse plasma at 10 mg/kg, sc after 2 hrs; assay type: ADME, organism-based; conditions: in vivo
[28] = Ratio drug level in brain to plasma in C57BL/6j mouse at 10 mg/kg, sc after 2 hrs; assay type: ADME, organism-based; conditions: read-out: BPR
[29] = Drug concentration in Wistar Hann rat plasma at 5 mg/kg, sc after 4 hrs; assay type: ADME, organism-based
[30] = Ratio drug level in brain to plasma in C57BL/6j mouse at 10 mg/kg, sc after 0.5 hrs; assay type: ADME, organism-based; conditions: read-out: BPR
[31] = AUC (0 to infinity) in Wistar Hann rat brain at 5 mg/kg, sc; assay type: ADME, organism-based; parameters: dose 5 mg/kg, route subcutaneous, time infinity
Plasma [32] = test: Fraction unbound in Wistar Hann rat plasma at 5 mg/kg, sc after 2 hrs; assay type: ADME, organism-based; conditions: in vivo
[33] = Volume of distribution at steady state in Wistar Hann rat at 0.5 mg/kg, iv; assay type: ADME, organism-based; conditions: in vivo, read-out: Vdss
[34] = Ratio of drug level in CSF to plasma in Wistar Hann rat at 5 mg/kg, sc after 6 hrs; assay type: ADME, organism-based; conditions: CSF and plasma
[35] = Ratio of unbound AUC in brain to plasma in Wistar Hann rat at 5 mg/kg, sc after 2 hrs; assay type: ADME, organism-based; conditions: brain and plasma, read-out: Ratio AUC
[36] = Cmax in Wistar Hann rat brain at 5 mg/kg, sc; assay type: ADME, organism-based; parameters: dose 5 mg/kg, route subcutaneous

SMILES: Cn1ccc(-c2ccc(Cn3cc(C(=O)N[C@H]4CCOC[C@@H]4O)c4ncccc43)cc2)n1
- Kp uu at 2 h [1]: 0.16
- AUC(0-t) [2]: 240 ng·h/mL
- Kp uu [3]: 0.15
- bioavailability [4]: 69%
- Kp at 1 h [5]: 0.07
- AUC(0-t) at 24 h [6]: 1660 ng·h/mL
- Kp uu at 6 h [7]: 0.14
- Tmax [8]: 2 h
- concentration at 6 h [9]: 2150 nM
- Cp(f) (Plasma [10]): 218 nM
- C0 [11]: 535 ng/mL
- concentration at 4 h [12]: 681 nM
- Cp(f) (Plasma [13]): 0.092 nM
- Cp(f) (Plasma [14]): 0.027 nM
- Tmax [15]: 1 h
- Kp at 4 h [16]: 0.1
- Kp uu at 1 h [17]: 0.29
- concentration at 6 h [18]: 54.3 nM
- Cp(f) (Plasma [19]): 463 nM
- Kp at 6 h [20]: 0.19
- Tmax [21]: 1.5 h
- Kp at 2 h [22]: 0.18
- Cp(f) (Plasma [23]): 295 nM
- bioavailability [24]: 67.9%
- AUC(0-t) [25]: 1830 ng·h/mL
- concentration at 6 h [26]: 409 nM
- Cp(f) (Plasma [27]): 379 nM
- Kp at 2 h [28]: 0.06
- concentration at 4 h [29]: 3190 nM
- Kp at 0.5 h [30]: 0.14
- AUC(0-inf) [31]: 2680 ng·h/mL
- Cp(f) (Plasma [32]): 502 nM
- Vd [33]: 1.49 L/kg
- Kp at 6 h [34]: 0.02
- Kp uu at 2 h [35]: 0.13
- Cmax [36]: 453 ng/mL

Reference: ChEMBL document CHEMBL3745675, “Design and optimization of selective azaindole amide M1 positive allosteric modulators” (Bioorg Med Chem Lett, 2016)
